Data as given in US20260132128A1, “COMPOUND FOR RECOVERING P53 MUTATION FUNCTION AND USE THEREOF” (SHENZHEN ZHONGGE BIOLOGICAL TECHNOLOGY CO., LTD., priority 2022, published 2026).

Tests used:
[1] = Liver microsome stability test, human (HLM); format: in vitro ADME; settings: human liver microsomes, NADPH; read-out: T1/2 (min) Human
Description: (§1) The 10 mM test compound/ketanserin (Energy Chemical, Cat. No. E020711) stock solution was diluted with acetonitrile to 0.5 mM compound/reference compound. The frozen 100 mM NADPH (MCE, Cat. No. HYF003/CS-4998) was diluted with phosphate buffer solution to a concentration of 6 mM; 20 mg/mL HLM (BioIVT, Cat. No. X008067) or MLM (BioIVT, Cat. No. M00501) was diluted with phosphate buffer solution to a concentration of 0.75 mg/ml, and added to a 96-round well plate, respectively, and shaken evenly on an oscillator at 600 rpm. The above oscillated samples were pipetted 3 times with an electric pipettor and dispensed into a new 96-well plate (containing NADPH group (n=2), NADPH-free group was added at 0 and 45 min (n=1)), and there were a total of 5 groups of 0, 5, 15, 30 and 45 min, respectively. After pre-incubation of the 5 groups of samples at 37° C. for 5 min, glacial acetonitrile was quickly added to the 0 min group for precipitation, and after rapid vortexing, K-Buffer or NADPH was added with an electric pipettor. The remaining groups were sequentially added with 6 mM NADPH to start the reaction in the order of 45, 30, 15 and 5 min samples, and K-Buffer solution was added to the NADPH-free group. After mixing at 1000 rpm in an oscillating mixer for 10 s, they were continuously incubated at 37° C. for the corresponding time. The reaction was terminated by quickly adding glacial acetonitrile internal standard using an electric pipettor; after vortexing at 900 rpm for 10 seconds, heat sealing was performed, oscillation was performed on an oscillator for 10 minutes, centrifugation was performed at 4000 rpm for 50 minutes, the supernatant was collected and diluted with pure water, and the test compound and the reference compound were quantified by LC-MS/MS analysis.

[2] = Liver microsome stability test, mouse (MLM); format: in vitro ADME; settings: mouse liver microsomes, NADPH; read-out: T1/2 (min) Mouse
Description: as §1

[3] = Pharmacokinetic test in mice; format: in vivo; settings: male, ICR, mouse, plasma; for AUC / Cmax: 25 mg/kg, po 25 mpk; for clearance: 2.5 mg/kg, iv 2.5 mpk
Description: ICR male mice (15 to 35 g, 5 to 10 weeks old, Shanghai Xipuer-Bikai Experimental Animal Co., Ltd.) were selected as test animals in this study. The LC-MS/MS method was used to quantitatively determine drug concentrations in the plasma of mice at different time points after intravenous injection or oral gavage administration of the test compound to evaluate the pharmacokinetic characteristics of the compound in mice. The clear solution of the test compound was injected into ICR mice via the tail vein (without fasting, solvent: 40% hydroxypropyl-β-cyclodextrin) and administered to ICR mice by oral gavage (fasting for 10 to 14 hours, free drinking water, solvent: 0.2% hydroxypropyl cellulose, 0.5% Tween 80). For intravenous administration, blood was collected from the submandibular venous plexus at 0.033, 0.083, 0.25, 0.5, 1, 2, 4, 8, and 24 hours after administration, placed in an anticoagulant tube with EDTA-K2 (Jiangsu Kangjian Medical Supplies Co., Ltd.), mixed, and centrifuged at 2-8° C., 6800 g for 6 minutes to obtain plasma; for oral gavage administration, blood was collected from the submandibular venous plexus at 0.083, 0.25, 0.5, 1, 2, 4, 6, 8, and 24 hours after administration, placed in an anticoagulant tube with EDTA-K2 (Jiangsu Kangjian Medical Supplies Co., Ltd.), mixed, and centrifuged at 2-8° C., 6800 g for 6 minutes to obtain plasma. The blood drug concentration was determined by LC-MS/MS, and the relevant pharmacokinetic parameters were calculated by the non-compartmental linear logarithmic trapezoidal method using Phoenix WinNonlin™ Version 7.0 (Pharsight, USA) pharmacokinetic software.

| SMILES | half-life [1] [min] | half-life [2] [min] | AUC [3] [ng·h/mL] | Cmax [3] [ng/mL] | clearance [3] [mL/min/kg] |
| --- | --- | --- | --- | --- | --- |
| CNC(=O)c1ccc(NCC#Cc2nc3c(NC4CC[C@@H](N5CC6(COC6)C5)C[C@@H]4F)cccn3c2CC(F)(F)F)c(OCF)c1 (stereo partly drawn) [Compound 58] | 37.5 | 33 | – | – | – |
| CNC(=O)c1ccc(NCC#Cc2nc3c(N[C@@H]4CCN(C)C[C@@H]4F)cccn3c2CC(F)(F)F)c(OC)c1 [Compound 5] | – | – | 4070 | 1140 | 54 |
| COc1cc(C(=O)NC2CC2)ccc1NCC#Cc1nc2c(NC3CC[C@@H](N4CC5(COC5)C4)C[C@@H]3F)cccn2c1CC(F)(F)F (stereo partly drawn) [Compound 54] | 32 | 78.4 | – | – | – |
| CNC(=O)c1ccc(NCC#Cc2nc3c(NC4CCC(N5CC6(COC6)C5)CC4F)cccn3c2CC(F)(F)F)c(OC)c1 (single isomer, unassigned) [Compound 35-6i] | – | 19.2 | 19700 | 6860 | 20 |

Next, values leading:

| half-life [1] [min] | half-life [2] [min] | AUC [3] [ng·h/mL] | Cmax [3] [ng/mL] | clearance [3] [mL/min/kg] | SMILES |
| --- | --- | --- | --- | --- | --- |
| 55.8 | 22 | 17400 | 4160 | 17 | [2H]C([2H])([2H])NC(=O)c1ccc(NCC#Cc2cc3c(NC4CCC(N5CC6(COC6)C5)CC4F)cccn3c2CC(F)(F)F)c(OC([2H])([2H])[2H])c1 (single isomer, unassigned) [Compound 74d] |
| 44 | 55 | – | – | – | [2H]C([2H])([2H])NC(=O)c1ccc(NCC#Cc2nc3c(NC4CC[C@@H](N5CC6(COC6)C5)C[C@@H]4F)cccn3c2CC(F)(F)F)c(OC([2H])([2H])[2H])c1 (stereo partly drawn) [Compound 64] |
